Measurements from ChEMBL document CHEMBL1697731, “Cheminformatics analysis of assertions mined from literature that describe drug-induced liver injury in different species” (Chem Res Toxicol, 2010).

What was measured:
[1] = tested on: Hepatotoxicity; experiment: Literature-mined compound from Fourches et al multi-species drug-induced liver injury (DILI) dataset, effect in humans; settings: human
[2] = tested on: Hepatotoxicity; experiment: Literature-mined compound from Fourches et al multi-species drug-induced liver injury (DILI) dataset, effect in rodents; settings: rodentia
[3] = tested on: Hepatotoxicity; experiment: Literature-mined compound from Fourches et al multi-species drug-induced liver injury (DILI) dataset, effect in non-rodents

**Q.** How did the Hepatotoxicity [1] turn out when Cc1c(OCC(F)(F)F)ccnc1C[S+]([O-])c1nc2ccccc2[nH]1 (stereo not given) [LANSOPRAZOLE] was run?
**A.** drug-induced liver injury reported

**Q.** And the Hepatotoxicity [2]?
**A.** no drug-induced liver injury reported

**Q.** And the Hepatotoxicity [3]?
**A.** no drug-induced liver injury reported

**Q.** How did the Hepatotoxicity [1] turn out when C[N+](C)(C)CC(O)CC(=O)[O-] (stereo not given) [CARNITINE] was run?
**A.** drug-induced liver injury reported

**Q.** And the Hepatotoxicity [2]?
**A.** drug-induced liver injury reported

**Q.** What about the Hepatotoxicity [3] of the same compound?
**A.** drug-induced liver injury reported

**Q.** COc1cccc2c1C(=O)c1c(O)c3c(c(O)c1C2=O)C[C@@](O)(C(=O)CO)C[C@@H]3O[C@H]1C[C@H](N)[C@H](O)[C@H](C)O1 [DOXORUBICIN] was tested. Which Hepatotoxicity [1] did it give?
**A.** drug-induced liver injury reported

**Q.** And the Hepatotoxicity [2]?
**A.** drug-induced liver injury reported

**Q.** And the Hepatotoxicity [3]?
**A.** drug-induced liver injury reported

**Q.** For Cc1nnc(SCC2=C(C(=O)O)N3C(=O)[C@@H](NC(=O)Cn4cnnn4)[C@H]3SC2)s1 [CEFAZOLIN], which Hepatotoxicity [1] is on record?
**A.** drug-induced liver injury reported

**Q.** What about the Hepatotoxicity [2] of the same compound?
**A.** drug-induced liver injury reported

**Q.** What about the Hepatotoxicity [3] of the same compound?
**A.** no drug-induced liver injury reported

**Q.** How did the Hepatotoxicity [1] turn out when CN1C(C(=O)Nc2ccccn2)=C(O)c2ccccc2S1(=O)=O [PIROXICAM] was run?
**A.** drug-induced liver injury reported

**Q.** And the Hepatotoxicity [2]?
**A.** drug-induced liver injury reported

**Q.** And the Hepatotoxicity [3]?
**A.** no drug-induced liver injury reported

**Q.** With CO[C@H]1C[C@H](O[C@H]2[C@H](C)[C@@H](O[C@@H]3O[C@H](C)C[C@H](N(C)C)[C@H]3OC(C)=O)[C@@H](C)C[C@@]3(CO3)C(=O)[C@H](C)[C@@H](OC(C)=O)[C@@H](C)[C@@H](C)OC(=O)[C@@H]2C)O[C@@H](C)[C@@H]1OC(C)=O [TROLEANDOMYCIN] as the compound, how does the Hepatotoxicity [1] read?
**A.** drug-induced liver injury reported

**Q.** What about the Hepatotoxicity [2] of the same compound?
**A.** drug-induced liver injury reported

**Q.** And the Hepatotoxicity [3]?
**A.** drug-induced liver injury reported

**Q.** With CN(C)/N=N/c1[nH]cnc1C(N)=O [DACARBAZINE] as the compound, how does the Hepatotoxicity [1] read?
**A.** drug-induced liver injury reported

**Q.** What about the Hepatotoxicity [2] of the same compound?
**A.** no drug-induced liver injury reported

**Q.** And the Hepatotoxicity [3]?
**A.** no drug-induced liver injury reported

**Q.** Which results are given for O=[N+]([O-])O[C@H]1CO[C@H]2[C@@H]1OC[C@H]2O[N+](=O)[O-] [ISOSORBIDE DINITRATE]?
**A.** Hepatotoxicity [1]: drug-induced liver injury reported; Hepatotoxicity [2]: drug-induced liver injury reported; Hepatotoxicity [3]: no drug-induced liver injury reported

**Q.** Which results are given for Nc1c(Br)cc(Br)cc1CN[C@H]1CC[C@H](O)CC1 [AMBROXOL]?
**A.** Hepatotoxicity [1]: no drug-induced liver injury reported; Hepatotoxicity [2]: drug-induced liver injury reported; Hepatotoxicity [3]: no drug-induced liver injury reported

**Q.** What does the source list for CCCCC[C@H](O)/C=C/[C@H]1[C@H](O)CC(=O)[C@@H]1C/C=C\CCCC(=O)O [DINOPROSTONE]?
**A.** Hepatotoxicity [1]: drug-induced liver injury reported; Hepatotoxicity [2]: drug-induced liver injury reported; Hepatotoxicity [3]: no drug-induced liver injury reported

**Q.** With CNC[C@H](O)c1cccc(O)c1 [PHENYLEPHRINE] as the compound, how does the Hepatotoxicity [1] read?
**A.** drug-induced liver injury reported

**Q.** And the Hepatotoxicity [2]?
**A.** drug-induced liver injury reported

**Q.** What about the Hepatotoxicity [3] of the same compound?
**A.** drug-induced liver injury reported

**Q.** For CCCC(C)(COC(N)=O)COC(=O)NC(C)C (stereo not given) [CARISOPRODOL], which Hepatotoxicity [1] is on record?
**A.** no drug-induced liver injury reported

**Q.** What about the Hepatotoxicity [2] of the same compound?
**A.** drug-induced liver injury reported

**Q.** What about the Hepatotoxicity [3] of the same compound?
**A.** no drug-induced liver injury reported

**Q.** Which Hepatotoxicity [1] does the source give for CC(=O)OCC(=O)[C@@]1(O)CC[C@H]2[C@@H]3CCC4=CC(=O)CC[C@]4(C)[C@H]3C(=O)C[C@@]21C [CORTISONE ACETATE] here?
**A.** no drug-induced liver injury reported

**Q.** What about the Hepatotoxicity [2] of the same compound?
**A.** drug-induced liver injury reported

**Q.** What about the Hepatotoxicity [3] of the same compound?
**A.** no drug-induced liver injury reported

**Q.** What does the source list for DALTEPARIN SODIUM?
**A.** Hepatotoxicity [1]: no drug-induced liver injury reported; Hepatotoxicity [2]: drug-induced liver injury reported; Hepatotoxicity [3]: no drug-induced liver injury reported

**Q.** CO[C@H]1/C=C/O[C@@]2(C)Oc3c(C)c(O)c4c(O)c(c(/C=N/N5CCN(C)CC5)c(O)c4c3C2=O)NC(=O)/C(C)=C\C=C\[C@H](C)[C@H](O)[C@@H](C)[C@@H](O)[C@@H](C)[C@H](OC(C)=O)[C@@H]1C [RIFAMPIN] was tested. Which Hepatotoxicity [1] did it give?
**A.** drug-induced liver injury reported

**Q.** And the Hepatotoxicity [2]?
**A.** drug-induced liver injury reported

**Q.** And the Hepatotoxicity [3]?
**A.** drug-induced liver injury reported

**Q.** Which results are given for Oc1c(Cl)cc(Cl)c(Cl)c1Cc1c(O)c(Cl)cc(Cl)c1Cl [HEXACHLOROPHENE]?
**A.** Hepatotoxicity [1]: no drug-induced liver injury reported; Hepatotoxicity [2]: drug-induced liver injury reported; Hepatotoxicity [3]: no drug-induced liver injury reported

**Q.** How did the Hepatotoxicity [1] turn out when C=C(C)[C@@H]1CC[C@]2(C(=O)O)CC[C@]3(C)[C@H](CC[C@@H]4[C@@]5(C)CC[C@H](O)C(C)(C)[C@@H]5CC[C@]43C)[C@@H]12 [BETULINIC ACID] was run?
**A.** drug-induced liver injury reported

**Q.** What about the Hepatotoxicity [2] of the same compound?
**A.** no drug-induced liver injury reported

**Q.** And the Hepatotoxicity [3]?
**A.** no drug-induced liver injury reported

**Q.** CC[C@H](CC[C@@H](C)[C@H]1CC[C@H]2[C@@H]3CC=C4C[C@@H](O)CC[C@]4(C)[C@H]3CC[C@]12C)C(C)C [BETA-SITOSTEROL] was tested. Which Hepatotoxicity [1] did it give?
**A.** drug-induced liver injury reported

**Q.** What about the Hepatotoxicity [2] of the same compound?
**A.** drug-induced liver injury reported

**Q.** And the Hepatotoxicity [3]?
**A.** no drug-induced liver injury reported

**Q.** What does the source list for O=c1oc2ccccc2c(O)c1Cc1c(O)c2ccccc2oc1=O [DICUMAROL]?
**A.** Hepatotoxicity [1]: drug-induced liver injury reported; Hepatotoxicity [2]: drug-induced liver injury reported; Hepatotoxicity [3]: no drug-induced liver injury reported

**Q.** With CNCC(O)c1ccc(O)cc1 (stereo not given) [OXEDRINE] as the compound, how does the Hepatotoxicity [1] read?
**A.** no drug-induced liver injury reported

**Q.** And the Hepatotoxicity [2]?
**A.** drug-induced liver injury reported

**Q.** What about the Hepatotoxicity [3] of the same compound?
**A.** no drug-induced liver injury reported

**Q.** How did the Hepatotoxicity [1] turn out when O=C(CO)[C@@H](O)[C@H](O)[C@H](O)CO [FRUCTOSE] was run?
**A.** drug-induced liver injury reported

**Q.** What about the Hepatotoxicity [2] of the same compound?
**A.** drug-induced liver injury reported

**Q.** What about the Hepatotoxicity [3] of the same compound?
**A.** drug-induced liver injury reported

**Q.** Which Hepatotoxicity [1] does the source give for LECITHIN here?
**A.** drug-induced liver injury reported

**Q.** And the Hepatotoxicity [2]?
**A.** drug-induced liver injury reported

**Q.** What about the Hepatotoxicity [3] of the same compound?
**A.** no drug-induced liver injury reported

**Q.** O=P1(N(CCCl)CCCl)NCCCO1 (stereo not given) [CYCLOPHOSPHAMIDE ANHYDROUS] was tested. Which Hepatotoxicity ([1]; Liver) did it give?
**A.** drug-induced liver injury reported

**Q.** And the Hepatotoxicity ([2]; Liver)?
**A.** drug-induced liver injury reported

**Q.** What about the Hepatotoxicity ([3]; Liver) of the same compound?
**A.** no drug-induced liver injury reported

**Q.** What does the source list for CC[C@H]1OC(=O)[C@H](C)[C@@H](O[C@H]2C[C@@](C)(OC)[C@@H](O)[C@H](C)O2)[C@H](C)[C@@H](O[C@@H]2O[C@H](C)C[C@H](N(C)C)[C@H]2O)[C@](C)(O)C[C@@H](C)C(=O)[C@H](C)[C@@H](O)[C@]1(C)O.O=C(O)[C@H](O)[C@@H](O)[C@H](O[C@@H]1O[C@H](CO)[C@H](O)[C@H](O)[C@H]1O)[C@H](O)CO [ERYTHROMYCIN LACTOBIONATE]?
**A.** Hepatotoxicity [1]: drug-induced liver injury reported; Hepatotoxicity [2]: no drug-induced liver injury reported; Hepatotoxicity [3]: no drug-induced liver injury reported

**Q.** For CC(C)n1c(/C=C/C(O)CC(O)CC(=O)O)c(-c2ccc(F)cc2)c2ccccc21 (stereo not given) [FLUVASTATIN], which Hepatotoxicity ([1]; Liver) is on record?
**A.** drug-induced liver injury reported

**Q.** What about the Hepatotoxicity ([2]; Liver) of the same compound?
**A.** drug-induced liver injury reported

**Q.** And the Hepatotoxicity ([3]; Liver)?
**A.** no drug-induced liver injury reported

**Q.** With COC(=O)C1=C(C)NC(C)=C(C(=O)OC(C)C)C1c1cccc2nonc12 (stereo not given) [ISRADIPINE] as the compound, how does the Hepatotoxicity [1] read?
**A.** drug-induced liver injury reported

**Q.** What about the Hepatotoxicity [2] of the same compound?
**A.** no drug-induced liver injury reported

**Q.** And the Hepatotoxicity [3]?
**A.** no drug-induced liver injury reported

**Q.** With CC(C)NNC(=O)COc1ccc(Cl)cc1 [IPROCLOZIDE] as the compound, how does the Hepatotoxicity [1] read?
**A.** drug-induced liver injury reported

**Q.** And the Hepatotoxicity [2]?
**A.** no drug-induced liver injury reported

**Q.** And the Hepatotoxicity [3]?
**A.** no drug-induced liver injury reported

**Q.** How did the Hepatotoxicity ([1]; Liver) turn out when CC1CS(=O)(=O)CCN1/N=C/c1ccc([N+](=O)[O-])o1 (stereo not given) [NIFURTIMOX] was run?
**A.** no drug-induced liver injury reported

**Q.** And the Hepatotoxicity ([2]; Liver)?
**A.** drug-induced liver injury reported

**Q.** And the Hepatotoxicity ([3]; Liver)?
**A.** no drug-induced liver injury reported

**Q.** CC(=O)O[C@H]1C[C@@]2(C)[C@@H](C[C@@H](O)[C@H]3[C@@]4(C)CC[C@@H](O)[C@@H](C)[C@@H]4CC[C@@]32C)/C1=C(\CCC=C(C)C)C(=O)O [FUSIDIC ACID] was tested. Which Hepatotoxicity [1] did it give?
**A.** drug-induced liver injury reported

**Q.** What about the Hepatotoxicity [2] of the same compound?
**A.** no drug-induced liver injury reported

**Q.** And the Hepatotoxicity [3]?
**A.** no drug-induced liver injury reported

**Q.** With CCC1(c2ccc(N)cc2)CCC(=O)NC1=O (stereo not given) [AMINOGLUTETHIMIDE] as the compound, how does the Hepatotoxicity [1] read?
**A.** no drug-induced liver injury reported

**Q.** And the Hepatotoxicity [2]?
**A.** drug-induced liver injury reported

**Q.** And the Hepatotoxicity [3]?
**A.** no drug-induced liver injury reported

**Q.** Which results are given for O=C(CCCN1CCC(O)(c2ccc(Cl)cc2)CC1)c1ccc(F)cc1 [HALOPERIDOL]?
**A.** Hepatotoxicity [1]: drug-induced liver injury reported; Hepatotoxicity [2]: drug-induced liver injury reported; Hepatotoxicity [3]: drug-induced liver injury reported

**Q.** For COc1ccc([C@@H]2Sc3ccccc3N(CCN(C)C)C(=O)[C@@H]2OC(C)=O)cc1 [DILTIAZEM], which Hepatotoxicity [1] is on record?
**A.** drug-induced liver injury reported

**Q.** And the Hepatotoxicity [2]?
**A.** drug-induced liver injury reported

**Q.** And the Hepatotoxicity [3]?
**A.** drug-induced liver injury reported

**Q.** What does the source list for CS(=O)(=O)OCCCCOS(C)(=O)=O [BUSULFAN]?
**A.** Hepatotoxicity [1]: drug-induced liver injury reported; Hepatotoxicity [2]: drug-induced liver injury reported; Hepatotoxicity [3]: no drug-induced liver injury reported

**Q.** Which Hepatotoxicity [1] does the source give for O=C(CCCCCCC(=O)Nc1ccccc1)NO [VORINOSTAT] here?
**A.** drug-induced liver injury reported

**Q.** What about the Hepatotoxicity [2] of the same compound?
**A.** drug-induced liver injury reported

**Q.** And the Hepatotoxicity [3]?
**A.** no drug-induced liver injury reported

**Q.** How did the Hepatotoxicity [1] turn out when COc1c(C)c2c(c(O)c1C/C=C(\C)CCC(=O)OCCN1CCOCC1)C(=O)OC2 [MYCOPHENOLATE MOFETIL] was run?
**A.** drug-induced liver injury reported

**Q.** And the Hepatotoxicity [2]?
**A.** no drug-induced liver injury reported

**Q.** What about the Hepatotoxicity [3] of the same compound?
**A.** no drug-induced liver injury reported
